Patent US11299472B2, “Fumarate salt of (R)-3-(1-(2,3-dichloro-4-(pyrazin-2-yl)phenyl)-2,2,2- trifluoroethyl)-1-methyl-1-(1-methylpiperidin-4-yl) urea, methods of preparation, and uses thereof” (Helsinn Healthcare SA, priority 2017, dated 2022)
Like-named read-outs stand apart in the source and are kept apart here.

Experiments:
[1] = Dog pharmacokinetic study, single oral HM04 fumarate salt 3, 10, 30 mg/kg (Example 10); format: in vivo, male Beagle dogs; details: for concentration at 0.5 h: 0.50 hours
Protocol: The pharmacokinetics of HM04 in plasma after single oral administration of HM04 fumarate salt to 6-week old male Sprague Dawley rats and male Beagle dogs (1-5 years of age) was investigated. Test formulations of 0.6 mg/mL, 2 mg/mL, and 6 mg/mL HM04 fumarate salt (based on weight of the free base) were prepared in 5% glucose solution. Doses of 3, 10, and 30 mg/kg HM04 fumarate salt (based on weight of the free base) were administered by gastric gavage as a 5 mL/kg dose volume of each of the three test formulations. Four animals were in each dose group. The formulation was administered to the dogs in fasting conditions with food provided three hours post-dosing.
Oral absolute bioavailability at 3 mg/kg was calculated from the ratio of individual oral AUC∞ to the individual AUC∞ values determined following intravenous administration of 3 mg/kg HM04 fumarate salt (based on weight of the free base) to the same four male Beagle dogs.
Oral absolute bioavailability at 10 mg/kg was calculated from the ratio of individual oral AUC∞ to the individual AUC∞ values determined following intravenous administration of 10 mg/kg HM04 fumarate salt (based on weight of the free base) to the same four male Beagle dogs.
Plasma HM04 concentrations were measured by LC-MS/MS following protein precipitation in the 96-well plate format. At the time of analysis samples were thawed out at ambient temperature. Aliquots of 25 μL of rat or dog K3EDTA plasma were spiked with 300 μL of internal standard (25 ng/mL of HM04-d8 in acetonitrile). After gentle vortex mixing for 5 minutes and centrifugation at 2010 g for 15 minutes at 4° C., an aliquot of 100 μL of the organic phase was transferred into a fresh 96-well polypropylene plate, using a P3-Evolution robotic system (Perkin Elmer). Following dilution with 100 μL of […] ammonium formate pH 3.5, an aliquot of 10 μL was injected into the LC-MS/MS system.

[2] = Rat pharmacokinetic study, single oral HM04 fumarate salt 3, 10, 30 mg/kg (Example 10); format: in vivo; details: male, Sprague Dawley, plasma, 3 mg/kg intravenous, four rats, read-out: mean AUC following intravenous administration
[3] = male, Beagle, plasma, 3 mg/kg oral, n=4
[4] = male, Beagle, plasma, 10 mg/kg oral, n=4
[5] = male, Beagle, plasma, 30 mg/kg oral, n=4
[6] = oral dose range of 3 to 30 mg/kg

With `CN1CCC(N(C)C(=O)N[C@H](c2ccc(-c3cnccn3)c(Cl)c2Cl)C(F)(F)F)CC1.O=C(O)/C=C/C(=O)O` [HM04 fumarate salt, (R)-3-(1-(2,3-dichloro-4-(pyrazin-2-yl)phenyl)-2,2,2-trifluoroethyl)-1-methyl-1-(1-methylpiperidin-4-yl)urea fumarate salt] the concentration at 8 h [1, 3] was 95.6 ± 83.3 ng/mL, the concentration at 24 h [1, 3] was 8.83 ± 14.7 ng/mL and the AUC(0-t) [1, 3] was 2160 ± 1720 ng·h/mL. For the same compound, the Cmax [1, 3] was 425 ± 222 ng/mL, the Tmax [1, 3] was 0.875 ± 0.25 h and the half-life ([1]; male, Beagle, plasma, 3 mg/kg oral, n=4, read-out: t1/2 (converted)) was 241 ± 72.6 min. It also gave a bioavailability ([1]; male, Beagle, plasma, 10 mg/kg oral vs 10 mg/kg intravenous, individual AUC∞ ratios) of 68 ± 10%, a concentration at 0 h ([1]; male, Beagle, plasma, 10 mg/kg oral, 0 hours (pre-dose), n=4) of 2.15 ± 4.3 ng/mL and a concentration at 0.25 h [1, 4] of 307 ± 246 ng/mL. It also gave a concentration at 0.5 h [1, 4] of 862 ± 460 ng/mL, a concentration at 1 h [1, 4] of 1510 ± 435 ng/mL and a concentration at 2 h [1, 4] of 1170 ± 260 ng/mL. For the same compound, the concentration at 4 h [1, 4] was 789 ± 150 ng/mL, the concentration at 8 h [1, 4] was 468 ± 171 ng/mL and the concentration at 24 h [1, 4] was 65.1 ± 65.2 ng/mL. It also gave an AUC(0-t) [1, 4] of 10900 ± 3500 ng·h/mL, a Cmax [1, 4] of 1510 ± 435 ng/mL and a Tmax [1, 4] of 1 h. For the same compound, the half-life ([1]; male, Beagle, plasma, 10 mg/kg oral, n=4, read-out: t1/2 (converted)) was 296 ± 78.6 min, the concentration at 0.25 h [1, 5] was 1940 ± 1330 ng/mL and the concentration at 0.5 h [1, 5] was 3730 ± 1560 ng/mL. It also gave a concentration at 1 h [1, 5] of 5720 ± 1200 ng/mL, a concentration at 2 h [1, 5] of 5030 ± 710 ng/mL and a concentration at 4 h [1, 5] of 3780 ± 577 ng/mL. The concentration at 8 h [1, 5] was 2440 ± 176 ng/mL, the concentration at 24 h [1, 5] was 560 ± 147 ng/mL and the AUC(0-t) [1, 5] was 54000 ± 6010 ng·h/mL. For the same compound, the Cmax [1, 5] was 5720 ± 1200 ng/mL, the Tmax [1, 5] was 1 h and the half-life ([1]; male, Beagle, plasma, 30 mg/kg oral, n=4, read-out: t1/2 (converted)) was 418 ± 36.8 min. For the same compound, the half-life ([1]; male, Beagle, plasma, intravenous, range, read-out: half-life after intravenous administration) was 240 to 300 min, the AUC(0-inf) ([1]; male, Beagle, plasma, iv, 3 mg/kg, Dog 1, 3 mg/kg intravenous, read-out: individual IV AUC∞) was 6190 ng·h/mL and the AUC(0-inf) ([1]; male, Beagle, plasma, iv, 3 mg/kg, Dog 2, 3 mg/kg intravenous, read-out: individual IV AUC∞) was 3100 ng·h/mL. It also gave an AUC(0-inf) ([1]; male, Beagle, plasma, iv, 3 mg/kg, Dog 3, 3 mg/kg intravenous, read-out: individual IV AUC∞) of 3210 ng·h/mL, an AUC(0-inf) ([1]; male, Beagle, plasma, iv, 3 mg/kg, Dog 4, 3 mg/kg intravenous, read-out: individual IV AUC∞) of 3070 ng·h/mL and an AUC(0-inf) ([1]; male, Beagle, plasma, iv, 10 mg/kg, Dog 1, 10 mg/kg intravenous, read-out: individual IV AUC∞) of 22500 ng·h/mL. For the same compound, the AUC(0-inf) ([1]; male, Beagle, plasma, iv, 10 mg/kg, Dog 2, 10 mg/kg intravenous, read-out: individual IV AUC∞) was 13200 ng·h/mL, the AUC(0-inf) ([1]; male, Beagle, plasma, iv, 10 mg/kg, Dog 3, 10 mg/kg intravenous, read-out: individual IV AUC∞) was 15500 ng·h/mL and the AUC(0-inf) ([1]; male, Beagle, plasma, iv, 10 mg/kg, Dog 4, 10 mg/kg intravenous, read-out: individual IV AUC∞) was 14900 ng·h/mL. The half-life ([1]; male, Beagle, plasma, oral 3 to 30 mg/kg, range, read-out: apparent terminal half-life) was 240 to 420 min, the AUC(0-inf) ([1]; male, Beagle, plasma, po, 3 mg/kg, Dog 1, 3 mg/kg oral, read-out: individual oral AUC∞) was 4930 ng·h/mL and the AUC(0-inf) ([1]; male, Beagle, plasma, po, 3 mg/kg, Dog 2, 3 mg/kg oral, read-out: individual oral AUC∞) was 1440 ng·h/mL. For the same compound, the AUC(0-inf) ([1]; male, Beagle, plasma, po, 3 mg/kg, Dog 3, 3 mg/kg oral, read-out: individual oral AUC∞) was 1160 ng·h/mL, the AUC(0-inf) ([1]; male, Beagle, plasma, po, 3 mg/kg, Dog 4, 3 mg/kg oral, read-out: individual oral AUC∞) was 1850 ng·h/mL and the AUC(0-inf) ([1]; male, Beagle, plasma, po, 10 mg/kg, Dog 1, 10 mg/kg oral, read-out: individual oral AUC∞) was 17500 ng·h/mL. The AUC(0-inf) ([1]; male, Beagle, plasma, po, 10 mg/kg, Dog 2, 10 mg/kg oral, read-out: individual oral AUC∞) was 8780 ng·h/mL, the AUC(0-inf) ([1]; male, Beagle, plasma, po, 10 mg/kg, Dog 3, 10 mg/kg oral, read-out: individual oral AUC∞) was 8470 ng·h/mL and the AUC(0-inf) ([1]; male, Beagle, plasma, po, 10 mg/kg, Dog 4, 10 mg/kg oral, read-out: individual oral AUC∞) was 10900 ng·h/mL. For the same compound, the AUC versus dose [1, 6] was “increased more than in direct proportion with the dose”, the Cmax versus dose [1, 6] was “increased roughly proportionally with the dose” and the “time to maximal concentrations of HM04” value ([1]; single oral administrations, post-dosing) was no more than 1 h. For the same compound, the AUC [2] was 1760 ± 196 ng·h/mL.
